From patent publication US12285446B2, “Compositions and methods for improving mitochondrial function” (priority 2018, dated 2025)

Legend:
[1] = test system: phsp-6::gfp induced by human Aβ1-42; test: phsp-6::gfp UPRmt reporter in worms with panneuronal human Aβ1-42; assay type: in vivo, Caenorhabditis elegans; details: compound treatment
Method: Thus, it is possible to screen for interventions that will reduce the UPRmt induction by modulating the Aβ aggregation or toxicity of Aβ on mitochondria.
For the screen, thirty microbial strains including the negative control bacteria E. coli OP50 were grown in appropriate culture media conditions and spotted onto standard nematode growth medium plates. ˜30 synchronized L1-larval-stage transgenic worm expressing Aβ 1-42 or tau in the pan-neurons were dropped onto the seeded plates and scored visually after 4 days under a fluorescent microscope for changes in phsp-6::gfp expression (FIG. 13).

UbV-gfp = UbV-gfp reporter; design: species or system Caenorhabditis elegans; details: in vivo
Method: To address how Gluconacetobacter spp feeding improves mitochondrial function, a variety of transgenic worm strains were tested, including worms that carry a construct encoding a fusion protein comprising a GFP reporter protein and a gene product that is involved in stress response, mitochondrial activity, peroxisomal function, innate immune response, and different signaling pathways (Table 1; FIGS. 2C-2K; FIGS. 6C-6L; FIGS. 7A-7D).

Cc1ccc2c(c1)sc(-c1ccc(N(C)C)cc1)[n+]2C.[Cl-] [Thioflavin T]
induction of UPRmt (phsp-6::gfp) in Aβ worms treated with compound [1]: induction of UPRmt was reduced

CC(C)C[C@H](NC(=O)[C@H](Cc1ccccc1)NC(=O)c1cnccn1)B(O)O [Bortezomib]
UbV-gfp expression (UbV-gfp): stabilizes UbV-gfp
